Assay results as given in patent publication US9708314B2, “Heterocyclic amide compound” (NISSAN CHEMICAL INDUSTRIES, LTD., priority 2013, dated 2017).

Key:
Type in all cases: in vivo
[1] = test system: Beta vulgaris ssp. vulgaris; assay: Test Example 4: effect on crop by application to foliage (diluvial soil, plastic box); settings: application to foliage, application herbicide amount 320 g/ha
Summary of the method: (§1)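 Read-out is a 0–5 visual grade of herbicidal ratio (5: ≥90%, almost withered; 0: ≤5%) taken three weeks after treatment. Compound was applied as a diluted emulsion to stem and leaf parts of 14-day greenhouse-grown plants (25° C. to 30° C.) at rates expressed as g/ha.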

Triticum aestivum = assay: as above; settings: application to foliage, application herbicide amount 320 g/ha
Summary of the method: as §1

Zea mays = assay: as above; settings: application to foliage, application herbicide amount 320 g/ha
Summary of the method: as §1

Brassica campestris L. = assay: as above; settings: application to foliage, application herbicide amount 320 g/ha
Summary of the method: as §1

Glycine max = assay: as above; settings: application to foliage, application herbicide amount 320 g/ha
Summary of the method: as §1

[2] = test system: directly sowed Oryza sativa; assay: as above; settings: application to foliage, application herbicide amount 320 g/ha
Summary of the method: as §1

Veronica persica = assay: Test Example 4: herbicidal effect by application to foliage (diluvial soil, plastic box); settings: application to foliage, application herbicide amount 320 g/ha
Summary of the method: as §1

[3] = test system: Echinochloa crus-galli var. crus-galli; assay: as above; settings: application to foliage, application herbicide amount 320 g/ha
Summary of the method: as §1

Chenopodium album = assay: as above; settings: application to foliage, application herbicide amount 320 g/ha
Summary of the method: as §1

Lolium multiflorum Lam. = assay: as above; settings: application to foliage, application herbicide amount 320 g/ha
Summary of the method: as §1

Setaria viridis = assay: as above; settings: application to foliage, application herbicide amount 320 g/ha
Summary of the method: as §1

Alopecurus myosuroides = assay: as above; settings: application to foliage, application herbicide amount 320 g/ha
Summary of the method: as §1

Abutilon theophrasti = assay: as above; settings: application to foliage, application herbicide amount 320 g/ha
Summary of the method: as §1

Avena fatua = assay: as above; settings: application to foliage, application herbicide amount 320 g/ha
Summary of the method: as §1

Apera spica-venti. = assay: as above; settings: application to foliage, application herbicide amount 320 g/ha
Summary of the method: as §1

Monochoria vaginalis = assay: Test Example 2: herbicidal activity, application during weed generation in submerged conditions; settings: Eighteenth Table
Summary of the method: (§2)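 Paddy-type pot test: flooded soil, 4 cm depth, greenhouse 25–30 °C. Emulsion formulation diluted in water, applied to water surface at 1–2 leaf stage; rate expressed as g/ha. Read-out at 3 wk, 0–5 score.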

[4] = test system: Echinochloa oryzacola Vasing.; assay: as above; settings: Eighteenth Table
Summary of the method: as §2

Scirpus juncoides = assay: as above; settings: Eighteenth Table
Summary of the method: as §2

[5] = application herbicide amount 280 g/ha
[6] = application herbicide amount 320 g/ha

Compound	f (Beta vulgaris ssp. vulgaris) effect on crop [1]	e (Triticum aestivum) effect on crop (Triticum aestivum)	b (Zea mays) effect on crop (Zea mays)	g (Brassica campestris L.) effect on crop (Brassica campestris L.)	c (Glycine max) effect on crop (Glycine max)	d (directly sowed Oryza sativa) effect on crop [2]	R (Veronica persica) herbicidal effect (Veronica persica)	H (Echinochloa crus-galli var. crus-galli) herbicidal effect [3]	O (Chenopodium album) herbicidal effect (Chenopodium album)	K (Lolium multiflorum Lam.) herbicidal effect (Lolium multiflorum Lam.)	G (Setaria viridis) herbicidal effect (Setaria viridis)	J (Alopecurus myosuroides) herbicidal effect (Alopecurus myosuroides)	M (Abutilon theophrasti) herbicidal effect (Abutilon theophrasti)	I (Avena fatua) herbicidal effect (Avena fatua)	L (Apera spica-venti.) herbicidal effect (Apera spica-venti.)	C (Monochoria vaginalis) herbicidal ratio grade (Monochoria vaginalis; [6])	A (Echinochloa oryzicola Vasing.) herbicidal ratio grade [4, 6]	B (Scirpus juncoides) herbicidal ratio grade (Scirpus juncoides; [6])	other results
Cc1nnc(NC(=O)c2ccc(C(F)(F)F)n3c(Br)nnc23)o1 [1-014]	5 (Herbicidal ratio of 90% or more (almost completely withered))	1 (Herbicidal ratio of 5% or more and less than 20%)	1 (Herbicidal ratio of 5% or more and less than 20%)	2 (Herbicidal ratio of 20% or more and less than 40%)	0 (Herbicidal ratio of 5% or less (almost no effect))	3 (Herbicidal ratio of 40% or more and less than 70%)	4 (Herbicidal ratio of 70% or more and less than 90%)	4 (Herbicidal ratio of 70% or more and less than 90%)	5 (Herbicidal ratio of 90% or more (almost completely withered))	1 (Herbicidal ratio of 5% or more and less than 20%)	3 (Herbicidal ratio of 40% or more and less than 70%)	1 (Herbicidal ratio of 5% or more and less than 20%)	4 (Herbicidal ratio of 70% or more and less than 90%)	1 (Herbicidal ratio of 5% or more and less than 20%)	0 (Herbicidal ratio of 5% or less (almost no effect))	–	–	–	C (Monochoria vaginalis) herbicidal ratio grade (Monochoria vaginalis; [5]): 0 (Herbicidal ratio of 5% or less (almost no effect)); A (Echinochloa oryzicola Vasing.) herbicidal ratio grade [4, 5]: 2 (Herbicidal ratio of 20% or more and less than 40%); B (Scirpus juncoides) herbicidal ratio grade (Scirpus juncoides; [5]): 3 (Herbicidal ratio of 40% or more and less than 70%)
COCc1nnc2c(C(=O)Nc3nnc(C)o3)ccc(C(F)(F)F)n12 [1-015]	5 (Herbicidal ratio of 90% or more (almost completely withered))	2 (Herbicidal ratio of 20% or more and less than 40%)	0 (Herbicidal ratio of 5% or less (almost no effect))	4 (Herbicidal ratio of 70% or more and less than 90%)	1 (Herbicidal ratio of 5% or more and less than 20%)	4 (Herbicidal ratio of 70% or more and less than 90%)	5 (Herbicidal ratio of 90% or more (almost completely withered))	5 (Herbicidal ratio of 90% or more (almost completely withered))	5 (Herbicidal ratio of 90% or more (almost completely withered))	1 (Herbicidal ratio of 5% or more and less than 20%)	3 (Herbicidal ratio of 40% or more and less than 70%)	1 (Herbicidal ratio of 5% or more and less than 20%)	5 (Herbicidal ratio of 90% or more (almost completely withered))	3 (Herbicidal ratio of 40% or more and less than 70%)	3 (Herbicidal ratio of 40% or more and less than 70%)	1 (Herbicidal ratio of 5% or more and less than 20%)	4 (Herbicidal ratio of 70% or more and less than 90%)	2 (Herbicidal ratio of 20% or more and less than 40%)	–
COc1ccc(-c2nnc3c(C(=O)Nc4nnc(C)o4)ccc(C(F)(F)F)n23)cc1 [1-016]	5 (Herbicidal ratio of 90% or more (almost completely withered))	0 (Herbicidal ratio of 5% or less (almost no effect))	0 (Herbicidal ratio of 5% or less (almost no effect))	3 (Herbicidal ratio of 40% or more and less than 70%)	0 (Herbicidal ratio of 5% or less (almost no effect))	0 (Herbicidal ratio of 5% or less (almost no effect))	4 (Herbicidal ratio of 70% or more and less than 90%)	5 (Herbicidal ratio of 90% or more (almost completely withered))	5 (Herbicidal ratio of 90% or more (almost completely withered))	1 (Herbicidal ratio of 5% or more and less than 20%)	2 (Herbicidal ratio of 20% or more and less than 40%)	1 (Herbicidal ratio of 5% or more and less than 20%)	5 (Herbicidal ratio of 90% or more (almost completely withered))	1 (Herbicidal ratio of 5% or more and less than 20%)	0 (Herbicidal ratio of 5% or less (almost no effect))	0 (Herbicidal ratio of 5% or less (almost no effect))	3 (Herbicidal ratio of 40% or more and less than 70%)	0 (Herbicidal ratio of 5% or less (almost no effect))	–
Cc1nnc(NC(=O)c2ccc(C(F)(F)F)n3c(-c4ccc(Cl)cc4)nnc23)o1 [1-017]	5 (Herbicidal ratio of 90% or more (almost completely withered))	0 (Herbicidal ratio of 5% or less (almost no effect))	0 (Herbicidal ratio of 5% or less (almost no effect))	3 (Herbicidal ratio of 40% or more and less than 70%)	0 (Herbicidal ratio of 5% or less (almost no effect))	3 (Herbicidal ratio of 40% or more and less than 70%)	4 (Herbicidal ratio of 70% or more and less than 90%)	5 (Herbicidal ratio of 90% or more (almost completely withered))	5 (Herbicidal ratio of 90% or more (almost completely withered))	0 (Herbicidal ratio of 5% or less (almost no effect))	0 (Herbicidal ratio of 5% or less (almost no effect))	0 (Herbicidal ratio of 5% or less (almost no effect))	5 (Herbicidal ratio of 90% or more (almost completely withered))	0 (Herbicidal ratio of 5% or less (almost no effect))	0 (Herbicidal ratio of 5% or less (almost no effect))	0 (Herbicidal ratio of 5% or less (almost no effect))	2 (Herbicidal ratio of 20% or more and less than 40%)	2 (Herbicidal ratio of 20% or more and less than 40%)	–
CSc1nnc2c(C(=O)Nc3nnc(C)o3)ccc(C(F)(F)F)n12 [1-018, N-(5-Methyl-1,3,4-oxadiazol-2-yl)-3-(methylthio)-5-(trifluoromethyl)-[1,2,4]triazol o[4,3-a]pyridine-8-carboxamide]	1 (Herbicidal ratio of 5% or more and less than 20%)	0 (Herbicidal ratio of 5% or less (almost no effect))	0 (Herbicidal ratio of 5% or less (almost no effect))	0 (Herbicidal ratio of 5% or less (almost no effect))	0 (Herbicidal ratio of 5% or less (almost no effect))	0 (Herbicidal ratio of 5% or less (almost no effect))	4 (Herbicidal ratio of 70% or more and less than 90%)	1 (Herbicidal ratio of 5% or more and less than 20%)	5 (Herbicidal ratio of 90% or more (almost completely withered))	0 (Herbicidal ratio of 5% or less (almost no effect))	2 (Herbicidal ratio of 20% or more and less than 40%)	0 (Herbicidal ratio of 5% or less (almost no effect))	3 (Herbicidal ratio of 40% or more and less than 70%)	0 (Herbicidal ratio of 5% or less (almost no effect))	0 (Herbicidal ratio of 5% or less (almost no effect))	0 (Herbicidal ratio of 5% or less (almost no effect))	0 (Herbicidal ratio of 5% or less (almost no effect))	2 (Herbicidal ratio of 20% or more and less than 40%)	–
